Source: paper PMC12501029, “Discovery of a CNS active GSK3 degrader using orthogonally reactive linker screening” (Nature Communications, 2025)

Experiments:
[1] = Intrinsic clearance (Cli), mouse liver microsomes; type: in vitro ADME; settings: 0.5 µM, scaling factor 48 mg microsomal protein per g liver
Method: Test compound (0.5 µM) was incubated with female CD1 mouse, male rat Han Wistar and pooled human liver microsomes (Xenotech^TM; 0.5 mg/mL 50 mM potassium phosphate buffer, pH7.4) and the reaction started with addition of excess NADPH (8 mg/mL 50 mM potassium phosphate buffer, pH7.4). Immediately, at time zero, then at 3, 6, 9, 15 and 30 min an aliquot (50 µL) of the incubation mixture was removed and mixed with acetonitrile (100 uL) to stop the reaction. An internal standard was added to all samples, the samples centrifuged to sediment precipitated protein and the plates then sealed prior to UPLC-MSMS analysis (Xevo TQ-S Micro, Waters^TM). XLfit (IDBS, UK) was used to calculate the exponential decay and consequently the rate constant (k) from the ratio of peak area of test compound to internal standard at each timepoint. The rate of intrinsic clearance (CLi) of each test compound was then calculated using the following calculation:1 CLi(mL/min/gliver)=kxVxMicrosomalproteinyield Where V (mL/mg protein) is the incubation volume/mg protein added and microsomal protein yield is taken as 48 mg, 46 mg and 40 mg protein/g liver for mouse, rat and human, respectively. Verapamil (0.5 µM) was used as a positive control to confirm acceptable assay performance.

GSK3β = biological target: T1, GSK3β (Homo sapiens, UniProt P49841); experiment: Immunoblot degradation of endogenous GSK3β in HEK293 cells; type: cell-based; settings: 10 nM; for endogenous GSK3β degradation: 2 h, HEK293
T1 construct: PROTAC-mediated degradation of untagged, endogenous GSK3β in HEK293 cells; host or cells: HEK293
T1 sequence (P49841 whole entry): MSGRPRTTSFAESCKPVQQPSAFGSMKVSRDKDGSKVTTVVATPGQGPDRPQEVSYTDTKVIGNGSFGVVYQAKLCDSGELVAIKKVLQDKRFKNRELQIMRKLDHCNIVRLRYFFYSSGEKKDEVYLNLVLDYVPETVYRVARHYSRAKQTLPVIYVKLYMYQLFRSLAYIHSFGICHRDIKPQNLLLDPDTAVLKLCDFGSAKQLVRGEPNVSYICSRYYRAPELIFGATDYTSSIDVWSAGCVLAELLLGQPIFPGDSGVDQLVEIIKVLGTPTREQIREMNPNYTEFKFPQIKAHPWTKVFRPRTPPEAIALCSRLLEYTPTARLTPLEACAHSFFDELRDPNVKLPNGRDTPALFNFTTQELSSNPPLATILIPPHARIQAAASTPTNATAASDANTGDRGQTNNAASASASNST
Method: HEK293, HAP1, HAP1 CRBN KO and SH-SY5Y cells were plated in either 6 cm plates or 6-well plates at varying densities (0.5–0.7 × 10^6 cells per plate or wells), and MEF cells were plated in 10 cm plates (1–1.2 × 10^6 cells per plate) depending on experimental set up in respective culturing condition as described above. Stock solutions of compounds were prepared as 10 mM in DMSO (Sigma–Aldrich). Working dilutions were made up fresh in DMSO and culturing media or differentiation media was refreshed prior to any compound treatments. For mode of action studies, cells were pre-treated with inhibitors for 2 h: 1 µM MG132 (Merck, 474790-5 mg), 1 µM MLN4924 (Merck, 5054770001) or 1 µM GSK3 inhibitor (compound 29), before treating with PROTACs for 2, 4 or 24 h as indicated in figure legends. Cells were washed twice with ice-cold PBS (Gibco), harvested in PBS and pelleted, cells were resuspended in RIPA buffer supplemented with complete EDTA-free protease inhibitor cocktail (Roche,11873580001, 1/10 mL) and phosSTOP (Roche, 04906845001, 1 tablet/10 mL) for 20 min lysis on ice then cleared via centrifugation at 16,000 × g, 4 °C for 20 min. SH-SY5Y cells were lysed in 500 µL ice-cold lysis buffer (25 mM Tris-HCl (pH 7.4), 50 mM NaF, 100 mM NaCl, 1 mM EDTA, 4 mM EGTA, 1% (v/v) Triton-X-100, 0.09% (w/v) sucrose, 10 mM sodium pyrophosphate, 10 mM sodium vanodate, 0.1% (v/v) β-mercaptoethanol, supplemented with complete mini protease inhibitor tablet (Sigma; 1 tablet/ 10 mL buffer)). Lysates were flash frozen, thawed and centrifugated at 16,000 × g, 4 °C for 20 min. Following clearance of lysates, protein concentrations were determined by the BCA assay (Fisher Scientific, 23225) or Bradford assay (Bio-rad). Five to thirty micrograms of protein from lysates were prepared in 4×LDS buffer (Thermo Fisher) and 50 mM dithiothreitol (DTT) denaturated at 95 °C for 5 min. […]

With `O=C1CCC(NC(=O)c2ccc(CN3CCN(Cc4ccc(-c5cn(-c6ccc(-c7cn8nccc(C(=O)Nc9cnccc9N9CCOCC9)c8n7)cc6)nn5)nc4)CC3)cn2)C(=O)N1` (stereo not drawn) [compound 22] the “Scaled Microsomal Stability MuClint” value [1] was less than 0.53 ml/min/g liver.

For `Cn1nc(N2CCC(=O)NC2=O)c2ccc(CN3CCN(Cc4ccc(-c5cn(-c6ccc(-c7cn8nccc(C(=O)Nc9cnccc9N9CCOCC9)c8n7)cc6)nn5)nc4)CC3)cc21` [compound 24], the “impact on GSK3 levels” value (GSK3β; 30 min, HEK cells) was “little impact”, the “endogenous GSK3β degradation” value (GSK3β) was “almost complete removal” and the “Scaled Microsomal Stability MuClint” value [1] was 2.4 ml/min/g liver.

With `Cn1nc(N2CCC(=O)NC2=O)c2ccc(CN3CCN(CCCc4cn(-c5ccc(-c6cn7nccc(C(=O)Nc8cnccc8N8CCOCC8)c7n6)cc5)nn4)CC3)cc21` [compound 26] the “endogenous GSK3β degradation” value (GSK3β) was “almost complete” and the “Scaled Microsomal Stability MuClint” value [1] was 4.0 ml/min/g liver.
